Test results published in patent publication US20230271964A1, “5-AMINO-8-(4-PYRIDYL)-[1,2,4]TRIAZOLO[4,3-C]PYRIMIDIN-3-ONE COMPOUNDS FOR USE AGAINST CANCER” (ASTRAZENECA AB, priority 2020, published 2023).

How the values were obtained:
[1] = target: human adenosine A1 receptor (Homo sapiens (Human), UniProt P30542); assay: Adenosine receptor inhibition binding assay, [3H]DPCPX, A1 receptor membranes; conditions: 1 nM [3H]DPCPX, 25° C., 1 h; Ki from IC50 by Cheng-Prusoff
Procedure: (§1) Inhibition binding assays were performed using 0.2 µg of membranes prepared from HEK293 cells infected with BacMam human adenosine A2A receptor or 1.4 µg of membranes prepared from HEK293 cells infected with BacMam human adenosine A1 receptor. Membranes were incubated in 50 mM Tris-HCl (HEK293-hA2A; pH 7.4) or 50 mM Tris-HCl, 100 mM NaCl, 10 mM MgCl2 (CHO-hA1; pH 7.4) in the presence of varying concentrations of test compound and 1 nM [^3H]ZM241385 (HEK293-hA2A) or [^3H]DPCPX (CHO-hA1) at 25° C. for 1 h. The assay was then terminated by rapid filtration onto GF/B grade Unifilter plates using a TomTec cell harvester, followed by 5 × 0.5 ml washes with ddH2O. Nonspecific binding was defined in the presence of 1 µM CGS 15943 (HEK293-hA2A) or 1 µM DPCPX (CHO-hA1). Bound radioactivity was determined by liquid scintillation counting and inhibition curves were analysed using a four-parameter logistic equation. IC50 values were converted to Ki values with the Cheng-Prusoff equation using a KD value derived from saturation binding studies.

[2] = target: human adenosine A2A receptor (Homo sapiens (Human), UniProt P29274); assay: Adenosine receptor inhibition binding assay, [3H]ZM241385, HEK293 A2A receptor membranes; conditions: 1 nM [3H]ZM241385, HEK293-hA2A membranes, 25° C., 1 h; Ki from IC50 by Cheng-Prusoff
Sequence of human adenosine A2A receptor (P29274 whole entry): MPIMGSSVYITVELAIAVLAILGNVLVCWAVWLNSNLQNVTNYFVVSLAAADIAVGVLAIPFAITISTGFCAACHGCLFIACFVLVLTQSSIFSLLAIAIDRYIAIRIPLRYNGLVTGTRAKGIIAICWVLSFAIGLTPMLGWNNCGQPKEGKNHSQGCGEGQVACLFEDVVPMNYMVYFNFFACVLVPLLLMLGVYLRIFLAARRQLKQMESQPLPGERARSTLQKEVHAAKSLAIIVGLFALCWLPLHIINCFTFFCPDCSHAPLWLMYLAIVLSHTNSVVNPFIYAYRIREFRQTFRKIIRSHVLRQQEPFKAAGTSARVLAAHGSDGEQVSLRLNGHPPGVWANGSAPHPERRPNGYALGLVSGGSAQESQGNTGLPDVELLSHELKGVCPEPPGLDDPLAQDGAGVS
Procedure: as §1

Sequence of human adenosine A1 receptor (P30542 whole entry): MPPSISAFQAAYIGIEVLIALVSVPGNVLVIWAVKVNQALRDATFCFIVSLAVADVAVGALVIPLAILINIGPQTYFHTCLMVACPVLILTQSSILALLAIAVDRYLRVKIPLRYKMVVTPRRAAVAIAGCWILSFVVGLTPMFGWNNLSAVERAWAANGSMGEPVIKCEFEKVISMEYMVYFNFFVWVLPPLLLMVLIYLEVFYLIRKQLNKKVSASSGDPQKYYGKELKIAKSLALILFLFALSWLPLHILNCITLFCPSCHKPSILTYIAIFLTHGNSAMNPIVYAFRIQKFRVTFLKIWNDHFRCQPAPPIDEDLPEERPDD

Structure (SMILES)	A1 pKi [1]	A2A pKi [2]
Cc1cc(-c2c(-c3ccccc3)nc(N)n3c(=O)n(CCn4cccn4)nc23)cc(C)n1 [Example 1-1, 5-amino-8-(2,6-dimethyl-4-pyridyl)-7-phenyl-2-(2-pyrazol-1-ylethyl)-[1,2,4]triazolo[4,3-c]pyrimidin-3-one]	6.2	7.5
Cc1cc(-c2c(-c3ccccc3)nc(N)n3c(=O)n(CCc4nccn4C)nc23)cc(C)n1 [Example 1-2, 5-amino-8-(2,6-dimethyl-4-pyridyl)-2-[2-(1-methylimidazol-2-yl)ethyl]-7-phenyl-[1,2,4]triazolo[4,3-c]pyrimidin-3-one]	6.1	8.2
Cc1cc(-c2c(-c3ccccc3)nc(N)n3c(=O)n(CCc4ncc[nH]4)nc23)cc(C)n1 [Example 1-3, 5-amino-8-(2,6-dimethyl-4-pyridyl)-2-[2-(1H-imidazol-2-yl)ethyl]-7-phenyl-[1,2,4]triazolo[4,3-c]pyrimidin-3-one]	5.9	7.9
Cc1cc(-c2c(-c3ccccc3)nc(N)n3c(=O)n(CCc4nnn[nH]4)nc23)cc(C)n1 [Example 1-4, 5-amino-8-(2,6-dimethyl-4-pyridyl)-7-phenyl-2-[2-(1H-tetrazol-5-yl)ethyl]-[1,2,4]triazolo[4,3-c]pyrimidin-3-one]	<5.4	6.4
Cc1cc(-c2c(-c3ccccc3)nc(N)n3c(=O)n(CCc4nnn(C)n4)nc23)cc(C)n1 [Example 1-6, 5-amino-8-(2,6-dimethyl-4-pyridyl)-2-[2-(2-methyltetrazol-5-yl)ethyl]-7-phenyl-[1,2,4]triazolo[4,3-c]pyrimidin-3-one]	5.7	7.2
CCn1nccc1CCn1nc2c(-c3cc(C)nc(C)c3)c(-c3ccccc3)nc(N)n2c1=O [Example 1-7, 5-amino-8-(2,6-dimethyl-4-pyridyl)-2-[2-(2-ethylpyrazol-3-yl)ethyl]-7-phenyl-[1,2,4]triazolo[4,3-c]pyrimidin-3-one]	6.6	8.0
Cc1cc(-c2c(-c3ccccc3)nc(N)n3c(=O)n(C(C)c4cccs4)nc23)cc(C)n1 (stereo not drawn) [Example 1-8, 5-amino-8-(2,6-dimethyl-4-pyridyl)-7-phenyl-2-[1-(2-thienyl)ethyl]-[1,2,4]triazolo[4,3-c]pyrimidin-3-one]	6.7	7.8
Cc1cc(-c2c(-c3ccccc3)nc(N)n3c(=O)n(Cc4ncco4)nc23)cc(C)n1 [Example 1-9, 5-amino-8-(2,6-dimethyl-4-pyridyl)-2-(oxazol-2-ylmethyl)-7-phenyl-[1,2,4]triazolo[4,3-c]pyrimidin-3-one]	7.0	9.1
Cc1cc(-c2c(-c3ccccc3)nc(N)n3c(=O)n(Cc4cocn4)nc23)cc(C)n1 [Example 1-10, 5-amino-8-(2,6-dimethyl-4-pyridyl)-2-(oxazol-4-ylmethyl)-7-phenyl-[1,2,4]triazolo[4,3-c]pyrimidin-3-one]	6.8	9.2
Cc1cc(-c2c(-c3ccccc3)nc(N)n3c(=O)n(Cc4nccn4C)nc23)cc(C)n1 [Example 1-11, 5-amino-8-(2,6-dimethyl-4-pyridyl)-2-[(1-methylimidazol-2-yl)methyl]-7-phenyl-[1,2,4]triazolo[4,3-c]pyrimidin-3-one]	7.8	9.8
Cc1cc(-c2c(-c3ccccc3)nc(N)n3c(=O)n(Cc4ccnn4C)nc23)cc(C)n1 [Example 1-12, 5-amino-8-(2,6-dimethyl-4-pyridyl)-2-[(2-methylpyrazol-3-yl)methyl]-7-phenyl-[1,2,4]triazolo[4,3-c]pyrimidin-3-one]	7.1	9.0
Cc1cc(-c2c(-c3ccccc3)nc(N)n3c(=O)n(Cc4ccon4)nc23)cc(C)n1 [Example 1-13, 5-amino-8-(2,6-dimethyl-4-pyridyl)-2-(isoxazol-3-ylmethyl)-7-phenyl-[1,2,4]triazolo[4,3-c]pyrimidin-3-one]	6.8	8.9
Cc1cc(-c2c(-c3ccccc3)nc(N)n3c(=O)n(Cc4coc(C)n4)nc23)cc(C)n1 [Example 1-15, 5-amino-8-(2,6-dimethyl-4-pyridyl)-2-[(2-methyloxazol-4-yl)methyl]-7-phenyl-[1,2,4]triazolo[4,3-c]pyrimidin-3-one]	6.7	8.9
Cc1cc(-c2c(-c3ccccc3)nc(N)n3c(=O)n(Cc4nnc(C)o4)nc23)cc(C)n1 [Example 1-17, 5-amino-8-(2,6-dimethyl-4-pyridyl)-2-[(5-methyl-1,3,4-oxadiazol-2-yl)methyl]-7-phenyl-[1,2,4]triazolo[4,3-c]pyrimidin-3-one]	6.2	8.2
Cc1cc(-c2c(-c3ccccc3)nc(N)n3c(=O)n(Cc4cncn4C)nc23)cc(C)n1 [Example 1-18, 5-amino-8-(2,6-dimethyl-4-pyridyl)-2-[(3-methylimidazol-4-yl)methyl]-7-phenyl-[1,2,4]triazolo[4,3-c]pyrimidin-3-one]	6.9	8.5
Cc1cc(-c2c(-c3ccccc3)nc(N)n3c(=O)n(Cc4nonc4C)nc23)cc(C)n1 [Example 1-19, 5-amino-8-(2,6-dimethyl-4-pyridyl)-2-[(4-methyl-1,2,5-oxadiazol-3-yl)methyl]-7-phenyl-[1,2,4]triazolo[4,3-c]pyrimidin-3-one]	7.2	9.6
Cc1cc(-c2c(-c3ccccc3)nc(N)n3c(=O)n(Cc4noc(C)n4)nc23)cc(C)n1 [Example 1-20, 5-amino-8-(2,6-dimethyl-4-pyridyl)-2-[(5-methyl-1,2,4-oxadiazol-3-yl)methyl]-7-phenyl-[1,2,4]triazolo[4,3-c]pyrimidin-3-one]	6.6	8.7
Cc1cc(-c2c(-c3ccccc3)nc(N)n3c(=O)n(Cc4cnc[nH]4)nc23)cc(C)n1 [Example 1-23, 5-amino-8-(2,6-dimethyl-4-pyridyl)-2-(1H-imidazol-5-ylmethyl)-7-phenyl-[1,2,4]triazolo[4,3-c]pyrimidin-3-one]	6.6	8.3
Cc1cc(-c2c(-c3ccccc3)nc(N)n3c(=O)n(Cc4ccn[nH]4)nc23)cc(C)n1 [Example 1-25, 5-amino-8-(2,6-dimethyl-4-pyridyl)-7-phenyl-2-(1H-pyrazol-5-ylmethyl)-[1,2,4]triazolo[4,3-c]pyrimidin-3-one]	7.1	8.6
Cc1cc(-c2c(-c3ccccc3)nc(N)n3c(=O)n(Cc4nn[nH]n4)nc23)cc(C)n1 [Example 1-26, 5-amino-8-(2,6-dimethyl-4-pyridyl)-7-phenyl-2-(2H-tetrazol-5-ylmethyl)-[1,2,4]triazolo[4,3-c]pyrimidin-3-one]	<5.4	6.4
Cc1cc(-c2c(-c3ccccc3)nc(N)n3c(=O)n(Cc4nnco4)nc23)cc(C)n1 [Example 1-27, 5-amino-8-(2,6-dimethyl-4-pyridyl)-2-(1,3,4-oxadiazol-2-ylmethyl)-7-phenyl-[1,2,4]triazolo[4,3-c]pyrimidin-3-one]	6.6	8.1
Cc1cc(-c2c(-c3ccccc3)nc(N)n3c(=O)n(Cc4nncn4C)nc23)cc(C)n1 [Example 1-28, 5-amino-8-(2,6-dimethyl-4-pyridyl)-2-[(4-methyl-1,2,4-triazol-3-yl)methyl]-7-phenyl-[1,2,4]triazolo[4,3-c]pyrimidin-3-one]	6.5	7.7
Cc1cc(-c2c(-c3ccccc3)nc(N)n3c(=O)n(Cc4nn[nH]c4C)nc23)cc(C)n1 [Example 1-29, 5-amino-8-(2,6-dimethylpyridin-4-yl)-2-((5-methyl-1H-1,2,3-triazol-4-yl)methyl)-7-phenyl-[1,2,4]triazolo[4,3-c]pyrimidin-3(2H)-one]	7.0	8.6
Cc1cc(-c2c(-c3ccccc3)nc(N)n3c(=O)n(Cc4cnn(C)n4)nc23)cc(C)n1 [Example 1-30, 5-amino-8-(2,6-dimethyl-4-pyridyl)-2-[(2-methyltriazol-4-yl)methyl]-7-phenyl-[1,2,4]triazolo[4,3-c]pyrimidin-3-one]	6.6	8.9
Cc1cc(-c2c(-c3ccccc3)nc(N)n3c(=O)n(C[C@@H]4CCCO4)nc23)cc(C)n1 [Example 2-17, 5-amino-8-(2,6-dimethyl-4-pyridyl)-7-phenyl-2-[[(2S)-tetrahydrofuran-2-yl]methyl]-[1,2,4]triazolo[4,3-c]pyrimidin-3-one]	–	8.6
Cc1cc(-c2c(-c3ccccc3)nc(N)n3c(=O)n(C[C@H]4C[C@@H](O)CN4C)nc23)cc(C)n1 [Example 2-24, 5-amino-8-(2,6-dimethyl-4-pyridyl)-2-[[(2R,4R)-4-hydroxy-1-methyl-pyrrolidin-2-yl]methyl]-7-phenyl-[1,2,4]triazolo[4,3-c]pyrimidin-3-one]	–	8.8
Cc1cc(-c2c(-c3ccccc3)nc(N)n3c(=O)n(C[C@@H]4C[C@H](O)CN4C)nc23)cc(C)n1 [Example 2-25, 5-amino-8-(2,6-dimethyl-4-pyridyl)-2-[[(2S,4S)-4-hydroxy-1-methyl-pyrrolidin-2-yl]methyl]-7-phenyl-[1,2,4]triazolo[4,3-c]pyrimidin-3-one]	–	8.8
